Test results taken from patent publication US12673975B2, “Cyclic peptide, cell scaffold material, cell separating material, and medium” (FUJIFILM Corporation, priority 2019, dated 2026).
Read-outs that look alike come from different tables or passages of the source. Starred links: 1 amine or outer side, 2 acyl side, 3 side chain; linkers in the order of their positions; H or OH if unused. Positions of bridges follow the written chain, without caps; N, C: chain ends. Non-standard residues stand in square brackets, D forms with d. Residues, ends and D or L forms follow the SMILES beside them. Pen = CC(C)(S)[C@H](N)C(=O)O; hCys = N[C@@H](CCS)C(=O)O; Dab = NCC[C@H](N)C(=O)O; Dap = NC[C@H](N)C(=O)O; X1 = O=C(C[*:2])[*:1]; X2 = O=C(C[*:1])[*:2]

Key:
[1] = molecular target: human integrin αvβ5 (Homo sapiens, UniProt P06756+P18084); experiment: Evaluation of integrin binding property (surface plasmon resonance, Biacore 3000, immobilized cyclic peptide)
In short: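 Human αvβ5 (30-1,000 nM) flowed for 10 min at 25 °C over immobilized cyclic peptide in 20 mM HEPES, 150 mM NaCl, 5 mM MgCl2, pH 7.4, followed by 30 min running buffer and 0.5 M EDTA regeneration. Dissociation constant from peptide minus unimmobilized channel, scored into standard grades.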

[2] = Evaluation of molecule stability (alkali treatment, residual rate by LC/MS); type: physicochemical; details: for Performance evaluation: Stability (residual rate of cyclic peptide after alkali treatment): 500 μM peptide aqueous solution plus equivalent of 1 M sodium hydroxide, 15° C., 3 hours, LC/MS peak area; for Stability (molecule stability, residual rate of the cyclic peptide rank): alkali treatment, residual rate by LC/MS
In short: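 Stability read as percent of summed LC/MS peak area remaining versus untreated peptide (C18, 45 °C, 10 mM ammonium formate pH 3, ESI positive/negative). Treatment: 500 μM peptide in water plus an equivalent of 1 M NaOH, 15 °C for 3 hours.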

[3] = SPR, 25° C., HEPES buffer with 5 mM magnesium chloride, integrin 30-1,000 nM, read-out: Performance evaluation: Binding activity (dissociation constant between the cyclic peptide and human integrin αvβ5)
[4] = surface plasmon resonance, immobilized cyclic peptide, human integrin αvβ5, read-out: Binding activity (integrin binding property, dissociation constant rank)

human integrin αvβ5, sequence (P06756 31-1048): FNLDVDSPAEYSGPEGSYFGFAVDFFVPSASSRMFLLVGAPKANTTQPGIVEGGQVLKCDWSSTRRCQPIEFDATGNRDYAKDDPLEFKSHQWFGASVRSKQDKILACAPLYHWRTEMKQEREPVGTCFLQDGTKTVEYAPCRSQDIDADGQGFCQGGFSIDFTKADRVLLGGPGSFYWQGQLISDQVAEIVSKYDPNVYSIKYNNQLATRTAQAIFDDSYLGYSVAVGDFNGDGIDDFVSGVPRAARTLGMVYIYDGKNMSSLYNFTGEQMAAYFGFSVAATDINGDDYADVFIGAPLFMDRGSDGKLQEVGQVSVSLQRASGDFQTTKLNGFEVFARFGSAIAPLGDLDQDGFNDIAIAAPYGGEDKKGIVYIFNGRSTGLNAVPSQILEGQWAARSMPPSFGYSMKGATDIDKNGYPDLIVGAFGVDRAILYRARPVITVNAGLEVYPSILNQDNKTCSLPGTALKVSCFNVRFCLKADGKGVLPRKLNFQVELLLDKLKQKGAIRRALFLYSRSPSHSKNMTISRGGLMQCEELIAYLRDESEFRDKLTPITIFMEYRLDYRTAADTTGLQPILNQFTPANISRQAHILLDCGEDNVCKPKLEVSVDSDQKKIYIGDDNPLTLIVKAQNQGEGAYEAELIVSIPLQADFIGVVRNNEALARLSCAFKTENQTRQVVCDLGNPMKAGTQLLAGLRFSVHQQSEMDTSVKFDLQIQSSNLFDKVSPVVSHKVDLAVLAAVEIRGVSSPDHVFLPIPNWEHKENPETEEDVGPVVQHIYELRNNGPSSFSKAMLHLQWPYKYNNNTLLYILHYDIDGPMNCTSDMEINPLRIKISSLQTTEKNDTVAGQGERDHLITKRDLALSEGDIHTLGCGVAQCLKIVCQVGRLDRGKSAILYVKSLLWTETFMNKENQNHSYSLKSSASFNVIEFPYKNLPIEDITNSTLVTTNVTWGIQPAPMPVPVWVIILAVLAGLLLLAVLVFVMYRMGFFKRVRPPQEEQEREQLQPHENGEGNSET
human integrin αvβ5, sequence (P18084 24-799): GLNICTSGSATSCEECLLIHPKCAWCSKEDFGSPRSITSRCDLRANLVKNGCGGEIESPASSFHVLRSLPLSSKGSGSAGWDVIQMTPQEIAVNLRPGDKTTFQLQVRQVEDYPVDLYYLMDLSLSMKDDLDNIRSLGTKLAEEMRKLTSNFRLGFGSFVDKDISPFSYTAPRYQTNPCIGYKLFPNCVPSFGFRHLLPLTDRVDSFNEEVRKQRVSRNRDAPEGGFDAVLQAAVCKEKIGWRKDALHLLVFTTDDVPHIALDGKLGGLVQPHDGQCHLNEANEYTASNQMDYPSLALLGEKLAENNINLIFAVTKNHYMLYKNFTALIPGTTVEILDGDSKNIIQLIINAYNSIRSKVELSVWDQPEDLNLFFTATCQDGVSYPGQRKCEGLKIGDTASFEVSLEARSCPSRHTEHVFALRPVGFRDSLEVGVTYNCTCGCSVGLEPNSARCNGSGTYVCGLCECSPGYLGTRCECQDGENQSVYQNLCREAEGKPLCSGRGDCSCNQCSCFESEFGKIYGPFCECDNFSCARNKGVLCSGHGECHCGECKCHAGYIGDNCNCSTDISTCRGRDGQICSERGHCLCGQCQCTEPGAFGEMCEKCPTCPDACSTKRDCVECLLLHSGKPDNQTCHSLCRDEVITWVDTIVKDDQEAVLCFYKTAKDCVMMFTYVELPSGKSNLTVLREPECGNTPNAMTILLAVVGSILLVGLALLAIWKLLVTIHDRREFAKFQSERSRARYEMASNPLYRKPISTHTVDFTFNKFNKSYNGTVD

## CC[C@H](C)[C@@H]1NC(=O)[C@@H](NC(=O)[C@H](CCCCN)NC(=O)[C@H](CCCCN)NC(=O)[C@@H](N)CCCCN)CCSCC(=O)NCC[C@@H](C(=O)N[C@@H](C)C(=O)O)NC(=O)[C@H](Cc2ccccc2)NC(=O)[C@H](CC(N)=O)NC(=O)[C@H](CC(=O)O)NC(=O)CNC(=O)[C@H](CCCNC(=N)N)NC(=O)[C@@H]2CCCN2C1=O [Cyclic peptide 10, KKK-(Hcy)-IPRGDNF(Dab(acetyl))A] (H-KKK[hCys]IPRGDNF[Dab]A-OH; linker 4-12 via X2)
[1]; [3]
  Kd: 50 to 100 nM
[2]
  Performance evaluation: Stability (residual rate of cyclic peptide after alkali treatment): A (The residual rate of the cyclic peptide is 70% or more.)

## C[C@H](NC(=O)[C@H](CCCCN)NC(=O)[C@H](CCCCN)NC(=O)[C@@H](N)CCCCN)C(=O)N[C@H]1CNC(=O)CSCC[C@@H](C(=O)O)NC(=O)[C@H](CCCNC(=N)N)NC(=O)[C@H](Cc2ccc(O)cc2)NC(=O)[C@H](CC(N)=O)NC(=O)[C@H](CC(=O)O)NC(=O)CNC(=O)[C@H](CCCNC(=N)N)NC(=O)[C@@H]2CCCN2C(=O)[C@H](CCC(=O)O)NC1=O [Cyclic peptide 47, KKKA(Dap(acetyl))EPRGDNYR-(Hcy)] (H-KKKA[Dap]EPRGDNYR[hCys]-OH; linker 5-14 via X1)
[1]; [3]
  Kd: 50 to 100 nM
[2]
  Performance evaluation: Stability (residual rate of cyclic peptide after alkali treatment): B (The residual rate of the cyclic peptide is 50% or more and less than 70%.)

## CC[C@H](C)[C@@H]1NC(=O)[C@@H](NC(=O)[C@H](C)NC(=O)[C@H](CCCCN)NC(=O)[C@H](CCCCN)NC(=O)[C@@H](N)CCCCN)CCSCC(=O)NCC[C@@H](C(=O)N[C@@H](C)C(=O)O)NC(=O)[C@H](CCCNC(=N)N)NC(=O)[C@H](Cc2ccccc2)NC(=O)[C@H](C)NC(=O)[C@H](CC(=O)O)NC(=O)CNC(=O)[C@H](CCCNC(=N)N)NC(=O)[C@@H]2CCCN2C1=O [Cyclic peptide 79, KKKA-(Hcy)-IPRGDAFR(Dab(acetyl))A] (H-KKKA[hCys]IPRGDAFR[Dab]A-OH; linker 5-14 via X2)
[1]; [3]
  Kd: 50 to 100 nM
[2]
  Performance evaluation: Stability (residual rate of cyclic peptide after alkali treatment): A (The residual rate of the cyclic peptide is 70% or more.)

## CC[C@H](C)[C@@H]1NC(=O)[C@H](C)NC(=O)[C@@H](NC(=O)CNC(=O)[C@H](CCCCN)NC(=O)[C@H](CCCCN)NC(=O)[C@@H](N)CCCCN)CCSCC(=O)NCC[C@@H](C(=O)N[C@@H](C)C(=O)O)NC(=O)[C@H](C)NC(=O)[C@H](CCCNC(=N)N)NC(=O)[C@H](Cc2ccccc2)NC(=O)[C@H](CC(N)=O)NC(=O)[C@H](CC(=O)O)NC(=O)CNC(=O)[C@H](CCCNC(=N)N)NC(=O)[C@@H]2CCCN2C1=O [Cyclic peptide 20, KKKG-(Hcy)-AIPRGDNFRA(Dab(acetyl))A] (H-KKKG[hCys]AIPRGDNFRA[Dab]A-OH; linker 5-16 via X2)
[1]; [3]
  Kd: 50 to 100 nM
[2]
  Performance evaluation: Stability (residual rate of cyclic peptide after alkali treatment): A (The residual rate of the cyclic peptide is 70% or more.)

## CC[C@H](C)[C@@H]1NC(=O)[C@@H](NC(=O)CNC(=O)[C@H](CCCCN)NC(=O)[C@H](CCCCN)NC(=O)[C@@H](N)CCCCN)CCSCC(=O)NCC[C@@H](C(=O)N[C@@H](C)C(=O)O)NC(=O)[C@H](C)NC(=O)[C@H](Cc2ccccc2)NC(=O)[C@H](CO)NC(=O)[C@H](CC(=O)O)NC(=O)CNC(=O)[C@H](CCCNC(=N)N)NC(=O)[C@@H]2CCCN2C1=O [Cyclic peptide 94, KKKG-(Hcy)-IPRGDSFA(Dab(acetyl))A] (H-KKKG[hCys]IPRGDSFA[Dab]A-OH; linker 5-14 via X2)
[1]; [3]
  Kd: < 50 nM
[2]
  Performance evaluation: Stability (residual rate of cyclic peptide after alkali treatment): A (The residual rate of the cyclic peptide is 70% or more.)

## CC[C@H](C)[C@@H]1NC(=O)[C@@H](NC(=O)[C@H](C)NC(=O)[C@H](CCCCN)NC(=O)[C@H](CCCCN)NC(=O)[C@@H](N)CCCCN)CCSCC(=O)NCC[C@@H](C(=O)N[C@@H](C)C(=O)O)NC(=O)[C@H](CCCNC(=N)N)NC(=O)[C@H](Cc2ccc(O)cc2)NC(=O)[C@H]([C@@H](C)O)NC(=O)[C@H](CC(=O)O)NC(=O)CNC(=O)[C@H](CCCNC(=N)N)NC(=O)[C@@H]2CCCN2C1=O [Cyclic peptide 81, KKKA-(Hcy)-IPRGDTYR(Dab(acetyl))A] (H-KKKA[hCys]IPRGDTYR[Dab]A-OH; linker 5-14 via X2)
[1]; [3]
  Kd: 50 to 100 nM
[2]
  Performance evaluation: Stability (residual rate of cyclic peptide after alkali treatment): A (The residual rate of the cyclic peptide is 70% or more.)

## CC(C)[C@@H]1NC(=O)[C@@H](NC(=O)CNC(=O)[C@H](CCCCN)NC(=O)[C@H](CCCCN)NC(=O)[C@@H](N)CCCCN)CCSCC(=O)NCC[C@@H](C(=O)N[C@@H](C)C(=O)O)NC(=O)[C@H](C)NC(=O)[C@H](Cc2ccccc2)NC(=O)[C@H]([C@@H](C)O)NC(=O)[C@H](CC(=O)O)NC(=O)CNC(=O)[C@H](CCCNC(=N)N)NC(=O)[C@@H]2CCCN2C1=O [Cyclic peptide 106, KKKG-(Hcy)-VPRGDTFA(Dab(acetyl))A] (H-KKKG[hCys]VPRGDTFA[Dab]A-OH; linker 5-14 via X2)
[1]; [4]
  Kd: < 50 nM
[2]
  Stability (molecule stability, residual rate of the cyclic peptide rank): A (The residual rate of the cyclic peptide is 70% or more.)

## CC[C@H](C)[C@@H]1NC(=O)[C@@H](NC(=O)CNC(=O)[C@H](CCCCN)NC(=O)[C@H](CCCCN)NC(=O)[C@@H](N)CCCCN)CCNC(=O)CSC(C)(C)[C@@H](C(=O)N[C@@H](C)C(=O)O)NC(=O)[C@H](CCCNC(=N)N)NC(=O)[C@H](Cc2ccccc2)NC(=O)[C@H]([C@@H](C)O)NC(=O)[C@H](CC(=O)O)NC(=O)CNC(=O)[C@H](CCCNC(=N)N)NC(=O)[C@@H]2CCCN2C1=O [Cyclic peptide 133, KKKG(Dab(acetyl))IPRGDTFR-(Pen)-A] (H-KKKG[Dab]IPRGDTFR[Pen]A-OH; linker 5-14 via X1)
[1]; [4]
  Kd: 50 to 100 nM
[2]
  Stability (molecule stability, residual rate of the cyclic peptide rank): A (The residual rate of the cyclic peptide is 70% or more.)

## CC(C)[C@@H]1NC(=O)[C@@H](NC(=O)[C@H](C)NC(=O)[C@H](CCCCN)NC(=O)[C@H](CCCCN)NC(=O)[C@H](CCCCN)NC(=O)[C@H](CCCCN)NC(=O)[C@H](CCCCN)NC(=O)[C@@H](N)CCCCN)CCSCC(=O)NCC[C@@H](C(=O)N[C@@H](C)C(=O)O)NC(=O)[C@H](C)NC(=O)[C@H](Cc2ccccc2)NC(=O)[C@H]([C@@H](C)O)NC(=O)[C@H](CC(=O)O)NC(=O)CNC(=O)[C@H](CCCNC(=N)N)NC(=O)[C@@H]2CCCN2C1=O [Cyclic peptide 112, KKKKKKA-(Hcy)-VPRGDTFA(Dab(acetyl))A] (H-KKKKKKA[hCys]VPRGDTFA[Dab]A-OH; linker 8-17 via X2)
[1]; [4]
  Kd: < 50 nM
[2]
  Stability (molecule stability, residual rate of the cyclic peptide rank): A (The residual rate of the cyclic peptide is 70% or more.)

## CC(C)[C@@H]1NC(=O)[C@@H](NC(=O)[C@H](CCCCN)NC(=O)[C@H](CCCCN)NC(=O)[C@@H](N)CCCCN)CCSCC(=O)NCC[C@@H](C(=O)O)NC(=O)[C@H](Cc2ccccc2)NC(=O)[C@H]([C@@H](C)O)NC(=O)[C@H](CC(=O)O)NC(=O)CNC(=O)[C@H](CCCNC(=N)N)NC(=O)[C@@H]2CCCN2C1=O [Cyclic peptide 64, KKK-(Hcy)-VPRGDTF(Dab(acetyl))] (H-KKK[hCys]VPRGDTF[Dab]-OH; linker 4-12 via X2)
[1]; [3]
  Kd: < 50 nM
[2]
  Performance evaluation: Stability (residual rate of cyclic peptide after alkali treatment): A (The residual rate of the cyclic peptide is 70% or more.)

## CC[C@H](C)[C@@H]1NC(=O)[C@@H](NC(=O)[C@H](C)NC(=O)[C@H](CCCCN)NC(=O)[C@H](CCCCN)NC(=O)[C@@H](N)CCCCN)CCSCC(=O)NCC[C@@H](C(=O)N[C@@H](C)C(=O)O)NC(=O)[C@H](CCCNC(=N)N)NC(=O)[C@H](Cc2ccccc2)NC(=O)[C@H]([C@@H](C)O)NC(=O)[C@H](CC(=O)O)NC(=O)CNC(=O)[C@H](CCCNC(=N)N)NC(=O)[C@H]([C@@H](C)O)NC1=O [Cyclic peptide 76, KKKA-(Hcy)-ITRGDTFR(Dab(acetyl))A] (H-KKKA[hCys]ITRGDTFR[Dab]A-OH; linker 5-14 via X2)
[1]; [3]
  Kd: 50 to 100 nM
[2]
  Performance evaluation: Stability (residual rate of cyclic peptide after alkali treatment): A (The residual rate of the cyclic peptide is 70% or more.)

## CC(C)[C@@H]1NC(=O)[C@@H](NC(=O)[C@H](C)NC(=O)[C@H](CCCCN)NC(=O)[C@H](CCCCN)NC(=O)[C@@H](N)CCCCN)CCSCC(=O)NCC[C@@H](C(=O)N[C@@H](C)C(=O)O)NC(=O)[C@H](C)NC(=O)[C@H](Cc2ccccc2)NC(=O)[C@H](CO)NC(=O)[C@H](CC(=O)O)NC(=O)CNC(=O)[C@H](CCCNC(=N)N)NC(=O)[C@@H]2CCCN2C1=O [Cyclic peptide 96, KKKA-(Hcy)-VPRGDSFA(Dab(acetyl))A] (H-KKKA[hCys]VPRGDSFA[Dab]A-OH; linker 5-14 via X2)
[1]; [3]
  Kd: < 50 nM
[2]
  Performance evaluation: Stability (residual rate of cyclic peptide after alkali treatment): A (The residual rate of the cyclic peptide is 70% or more.)

## CC(C)[C@@H]1NC(=O)[C@@H](NC(=O)[C@H](C)NC(=O)[C@H](CCCCN)NC(=O)[C@H](CCCCN)NC(=O)[C@@H](N)CCCCN)CCSCC(=O)NCC[C@@H](C(=O)N[C@@H](C)C(=O)O)NC(=O)[C@H](CCCNC(=N)N)NC(=O)[C@H](Cc2ccccc2)NC(=O)[C@H]([C@@H](C)O)NC(=O)[C@H](CC(=O)O)NC(=O)CNC(=O)[C@H](CCCNC(=N)N)NC(=O)[C@H]([C@@H](C)O)NC1=O [Cyclic peptide 89, KKKA-(Hcy)-VTRGDTFR(Dab(acetyl))A] (H-KKKA[hCys]VTRGDTFR[Dab]A-OH; linker 5-14 via X2)
[1]; [3]
  Kd: < 50 nM
[2]
  Performance evaluation: Stability (residual rate of cyclic peptide after alkali treatment): A (The residual rate of the cyclic peptide is 70% or more.)
